According to the kinase profiling compilation of Christmann-Franck et al. (2016):

Experiments:
Test in all cases: KINOMEscan competition binding
Details in all cases: compound 10.0 µM
[1] = target: TYK2 JH2 pseudokinase (human) (UniProt P29597)
DMPK (human) = DMPK (human) (UniProt Q09013)
MYO3B (human) = MYO3B (human) (UniProt Q8WXR4)
MAP4K1 (human) = MAP4K1 (human) (UniProt Q92918)
NEK3 (human) = NEK3 (human) (UniProt P51956)
PIP4K2C (human) = PIP4K2C (human) (UniProt Q8TBX8)
AAK1 (human) = AAK1 (human) (UniProt Q2M2I8)
CASK (human) = CASK (human) (UniProt O14936)
NTRK3 (human) = NTRK3 (human) (UniProt Q16288)
NTRK1 (human) = NTRK1 (human) (UniProt P04629)
AURKB (human) = AURKB (human) (UniProt Q96GD4)
BLK (human) = BLK (human) (UniProt P51451)
MARK2 (human) = MARK2 (human) (UniProt Q7KZI7)
PDGFRB (human) = PDGFRB (human) (UniProt P09619)
DSTYK (human) = DSTYK (human) (UniProt Q6XUX3)
EPHB3 (human) = EPHB3 (human) (UniProt P54753)
PTK2 (human) = PTK2 (human) (UniProt Q05397)
SRPK3 (human) = SRPK3 (human) (UniProt Q9UPE1)
EPHA4 (human) = EPHA4 (human) (UniProt P54764)
ERBB3 (human) = ERBB3 (human) (UniProt P21860)
ABL2 (human) = ABL2 (human) (UniProt P42684)
CAMK1G (human) = CAMK1G (human) (UniProt Q96NX5)
PTK6 (human) = PTK6 (human) (UniProt Q13882)
CDK13 (human) = CDK13 (human) (UniProt Q14004)
EPHA7 (human) = EPHA7 (human) (UniProt Q15375)
ACVR2A (human) = ACVR2A (human) (UniProt P27037)
SNRK (human) = SNRK (human) (UniProt Q9NRH2)
MAP4K2 (human) = MAP4K2 (human) (UniProt Q12851)
SIK3 (human) = SIK3 (human) (UniProt Q9Y2K2)
FYN (human) = FYN (human) (UniProt P06241)
SRPK2 (human) = SRPK2 (human) (UniProt P78362)
CLK2 (human) = CLK2 (human) (UniProt P49760)
YSK4 (human) = YSK4 (human) (UniProt Q56UN5)
TEK (human) = TEK (human) (UniProt Q02763)
TSSK1B (human) = TSSK1B (human) (UniProt Q9BXA7)
AKT1 (human) = AKT1 (human) (UniProt P31749)
DYRK1B (human) = DYRK1B (human) (UniProt Q9Y463)
MAP2K2 (human) = MAP2K2 (human) (UniProt P36507)
RIOK2 (human) = RIOK2 (human) (UniProt Q9BVS4)
CSNK1E (human) = CSNK1E (human) (UniProt P49674)

CLK2 (human), sequence (P49760 whole entry, looked up): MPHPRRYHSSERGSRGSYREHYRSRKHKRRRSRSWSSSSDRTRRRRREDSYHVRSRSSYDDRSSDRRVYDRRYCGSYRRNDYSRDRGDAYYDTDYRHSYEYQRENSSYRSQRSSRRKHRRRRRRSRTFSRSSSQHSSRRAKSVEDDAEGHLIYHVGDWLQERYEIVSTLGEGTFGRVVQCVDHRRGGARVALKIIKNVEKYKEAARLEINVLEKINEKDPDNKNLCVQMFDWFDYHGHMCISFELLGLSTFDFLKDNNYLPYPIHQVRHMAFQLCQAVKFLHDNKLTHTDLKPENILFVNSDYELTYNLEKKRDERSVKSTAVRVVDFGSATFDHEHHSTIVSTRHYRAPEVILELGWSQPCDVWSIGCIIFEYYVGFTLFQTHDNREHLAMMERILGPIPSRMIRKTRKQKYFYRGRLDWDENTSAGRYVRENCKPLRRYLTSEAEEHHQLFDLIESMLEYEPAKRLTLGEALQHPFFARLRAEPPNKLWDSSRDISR
CASK (human), sequence (O14936 whole entry, looked up): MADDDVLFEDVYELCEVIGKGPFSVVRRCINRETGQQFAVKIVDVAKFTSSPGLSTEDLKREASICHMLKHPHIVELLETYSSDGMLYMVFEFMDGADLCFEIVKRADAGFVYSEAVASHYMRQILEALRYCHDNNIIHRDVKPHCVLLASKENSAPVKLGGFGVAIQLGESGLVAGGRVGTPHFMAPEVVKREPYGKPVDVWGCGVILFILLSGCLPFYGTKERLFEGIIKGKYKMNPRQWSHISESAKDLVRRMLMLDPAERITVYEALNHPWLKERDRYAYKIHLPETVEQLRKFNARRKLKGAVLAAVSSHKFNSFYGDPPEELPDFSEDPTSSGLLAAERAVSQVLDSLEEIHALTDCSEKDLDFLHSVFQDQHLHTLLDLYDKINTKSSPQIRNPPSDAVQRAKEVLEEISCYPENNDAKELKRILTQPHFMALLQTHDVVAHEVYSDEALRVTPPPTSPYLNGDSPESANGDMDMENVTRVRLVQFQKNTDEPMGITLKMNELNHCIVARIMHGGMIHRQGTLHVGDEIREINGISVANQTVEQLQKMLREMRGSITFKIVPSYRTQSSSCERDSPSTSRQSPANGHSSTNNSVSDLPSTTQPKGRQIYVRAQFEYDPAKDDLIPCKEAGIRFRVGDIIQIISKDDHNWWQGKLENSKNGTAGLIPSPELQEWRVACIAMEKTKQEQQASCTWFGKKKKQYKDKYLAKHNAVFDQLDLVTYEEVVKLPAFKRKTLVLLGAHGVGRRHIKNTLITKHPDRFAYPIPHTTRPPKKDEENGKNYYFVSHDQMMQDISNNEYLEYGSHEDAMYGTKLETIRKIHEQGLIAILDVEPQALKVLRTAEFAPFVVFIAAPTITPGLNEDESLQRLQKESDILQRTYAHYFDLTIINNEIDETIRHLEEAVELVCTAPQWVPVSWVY
SRPK2 (human), sequence (P78362 whole entry, looked up): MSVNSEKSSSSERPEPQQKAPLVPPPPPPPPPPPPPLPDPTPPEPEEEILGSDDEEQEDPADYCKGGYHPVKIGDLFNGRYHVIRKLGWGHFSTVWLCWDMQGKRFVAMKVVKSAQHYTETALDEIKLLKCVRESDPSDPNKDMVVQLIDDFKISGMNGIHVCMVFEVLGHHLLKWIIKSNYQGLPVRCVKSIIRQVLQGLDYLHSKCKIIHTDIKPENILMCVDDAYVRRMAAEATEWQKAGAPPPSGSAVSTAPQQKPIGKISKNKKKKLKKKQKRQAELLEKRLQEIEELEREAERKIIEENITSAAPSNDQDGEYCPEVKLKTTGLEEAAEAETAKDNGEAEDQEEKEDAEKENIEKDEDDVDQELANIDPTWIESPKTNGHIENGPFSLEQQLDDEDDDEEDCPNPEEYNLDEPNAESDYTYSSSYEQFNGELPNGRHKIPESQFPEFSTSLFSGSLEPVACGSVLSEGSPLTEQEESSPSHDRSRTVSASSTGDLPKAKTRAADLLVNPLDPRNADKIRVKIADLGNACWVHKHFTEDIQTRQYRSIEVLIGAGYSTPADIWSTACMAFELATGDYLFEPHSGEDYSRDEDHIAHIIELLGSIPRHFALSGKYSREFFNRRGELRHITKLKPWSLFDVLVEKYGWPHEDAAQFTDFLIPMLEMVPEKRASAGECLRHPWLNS
TSSK1B (human), sequence (Q9BXA7 whole entry, looked up): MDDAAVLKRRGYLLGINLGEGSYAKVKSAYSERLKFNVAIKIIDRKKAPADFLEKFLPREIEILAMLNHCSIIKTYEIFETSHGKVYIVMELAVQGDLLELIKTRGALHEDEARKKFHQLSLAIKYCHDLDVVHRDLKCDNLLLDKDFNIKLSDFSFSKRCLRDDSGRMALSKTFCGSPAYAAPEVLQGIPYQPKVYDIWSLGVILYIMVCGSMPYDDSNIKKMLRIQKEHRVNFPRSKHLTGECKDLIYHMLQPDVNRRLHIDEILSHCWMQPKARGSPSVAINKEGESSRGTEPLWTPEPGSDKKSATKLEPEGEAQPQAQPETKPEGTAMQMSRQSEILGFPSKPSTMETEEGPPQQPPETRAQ
SIK3 (human), sequence (Q9Y2K2 whole entry, looked up): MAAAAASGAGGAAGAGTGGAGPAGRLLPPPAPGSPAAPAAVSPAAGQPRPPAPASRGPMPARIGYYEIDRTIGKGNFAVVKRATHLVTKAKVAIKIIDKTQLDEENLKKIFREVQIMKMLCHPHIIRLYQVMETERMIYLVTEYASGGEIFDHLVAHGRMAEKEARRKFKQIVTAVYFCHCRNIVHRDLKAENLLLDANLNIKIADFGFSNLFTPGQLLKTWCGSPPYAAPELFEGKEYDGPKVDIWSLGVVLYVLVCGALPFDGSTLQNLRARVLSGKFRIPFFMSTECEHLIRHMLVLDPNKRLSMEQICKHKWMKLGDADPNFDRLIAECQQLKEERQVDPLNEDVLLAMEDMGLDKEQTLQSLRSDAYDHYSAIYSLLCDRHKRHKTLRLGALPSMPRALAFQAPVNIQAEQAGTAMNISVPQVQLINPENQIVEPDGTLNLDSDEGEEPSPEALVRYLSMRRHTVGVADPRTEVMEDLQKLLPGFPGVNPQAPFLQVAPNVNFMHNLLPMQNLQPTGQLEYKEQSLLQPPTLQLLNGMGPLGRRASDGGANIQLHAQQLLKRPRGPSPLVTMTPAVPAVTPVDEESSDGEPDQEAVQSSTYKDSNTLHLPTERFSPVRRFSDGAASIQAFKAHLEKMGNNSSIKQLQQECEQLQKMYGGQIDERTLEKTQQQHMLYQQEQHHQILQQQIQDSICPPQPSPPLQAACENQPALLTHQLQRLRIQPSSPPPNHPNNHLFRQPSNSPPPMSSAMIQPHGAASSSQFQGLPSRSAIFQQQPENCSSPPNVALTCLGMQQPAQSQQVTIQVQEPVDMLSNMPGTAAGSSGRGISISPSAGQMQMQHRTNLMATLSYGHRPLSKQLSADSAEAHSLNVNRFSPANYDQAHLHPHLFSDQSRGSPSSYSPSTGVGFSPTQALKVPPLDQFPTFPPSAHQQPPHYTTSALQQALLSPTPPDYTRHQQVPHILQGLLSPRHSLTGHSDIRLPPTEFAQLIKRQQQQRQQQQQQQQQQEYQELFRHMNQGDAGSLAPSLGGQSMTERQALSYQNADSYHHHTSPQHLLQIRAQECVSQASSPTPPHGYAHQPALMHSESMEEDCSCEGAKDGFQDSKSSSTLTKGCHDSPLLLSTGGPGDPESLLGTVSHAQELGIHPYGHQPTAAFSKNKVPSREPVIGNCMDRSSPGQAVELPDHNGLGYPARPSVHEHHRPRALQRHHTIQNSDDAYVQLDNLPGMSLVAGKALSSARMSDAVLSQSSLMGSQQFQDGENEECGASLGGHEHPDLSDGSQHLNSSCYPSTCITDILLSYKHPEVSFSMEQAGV
AAK1 (human), sequence (Q2M2I8 whole entry, looked up): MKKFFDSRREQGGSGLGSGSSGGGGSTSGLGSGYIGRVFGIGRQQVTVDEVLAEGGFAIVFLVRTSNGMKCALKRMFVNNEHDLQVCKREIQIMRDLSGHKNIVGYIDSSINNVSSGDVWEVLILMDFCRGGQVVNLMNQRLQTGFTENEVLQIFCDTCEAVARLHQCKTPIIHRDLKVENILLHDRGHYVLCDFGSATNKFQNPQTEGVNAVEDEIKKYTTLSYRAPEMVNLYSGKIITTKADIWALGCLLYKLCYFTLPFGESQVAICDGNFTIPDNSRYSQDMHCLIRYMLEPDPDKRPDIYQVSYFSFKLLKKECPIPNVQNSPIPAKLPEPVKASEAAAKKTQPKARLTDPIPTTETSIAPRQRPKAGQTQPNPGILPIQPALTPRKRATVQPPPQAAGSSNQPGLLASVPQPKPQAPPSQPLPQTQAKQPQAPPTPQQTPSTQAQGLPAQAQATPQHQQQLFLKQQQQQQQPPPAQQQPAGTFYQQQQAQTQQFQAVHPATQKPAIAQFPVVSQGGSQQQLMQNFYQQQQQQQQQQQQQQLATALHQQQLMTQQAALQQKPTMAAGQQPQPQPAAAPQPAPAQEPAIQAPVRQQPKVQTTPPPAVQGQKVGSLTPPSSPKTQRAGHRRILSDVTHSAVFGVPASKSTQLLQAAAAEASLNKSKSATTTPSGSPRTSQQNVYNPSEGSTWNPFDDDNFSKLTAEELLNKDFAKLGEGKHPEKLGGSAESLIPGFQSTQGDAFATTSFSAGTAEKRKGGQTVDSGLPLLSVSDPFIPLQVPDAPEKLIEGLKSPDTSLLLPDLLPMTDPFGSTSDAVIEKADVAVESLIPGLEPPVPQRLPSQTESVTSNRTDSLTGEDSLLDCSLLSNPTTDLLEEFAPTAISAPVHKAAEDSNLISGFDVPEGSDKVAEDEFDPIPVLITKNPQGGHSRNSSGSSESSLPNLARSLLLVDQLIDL

SMILES: O=C1NC(=O)/C(=C/c2ccc3nccc(-c4ccncc4)c3c2)S1
- kinase still bound, per cent of control [1]: 51%
- kinase still bound, per cent of control (DMPK (human)): 2.9%
- kinase still bound, per cent of control (MYO3B (human)): 97%
- kinase still bound, per cent of control (MAP4K1 (human)): 26%
- kinase still bound, per cent of control (NEK3 (human)): 77%
- kinase still bound, per cent of control (PIP4K2C (human)): 3.2%
- kinase still bound, per cent of control (AAK1 (human)): 1%
- kinase still bound, per cent of control (CASK (human)): 59%
- kinase still bound, per cent of control (NTRK3 (human)): 68%
- kinase still bound, per cent of control (NTRK1 (human)): 78%
- kinase still bound, per cent of control (AURKB (human)): 39%
- kinase still bound, per cent of control (BLK (human)): 77%
- kinase still bound, per cent of control (MARK2 (human)): 74%
- kinase still bound, per cent of control (PDGFRB (human)): 55%
- kinase still bound, per cent of control (DSTYK (human)): 61%
- kinase still bound, per cent of control (EPHB3 (human)): 71%
- kinase still bound, per cent of control (PTK2 (human)): 100%
- kinase still bound, per cent of control (SRPK3 (human)): 31%
- kinase still bound, per cent of control (EPHA4 (human)): 96%
- kinase still bound, per cent of control (ERBB3 (human)): 88%
- kinase still bound, per cent of control (ABL2 (human)): 77%
- kinase still bound, per cent of control (CAMK1G (human)): 32%
- kinase still bound, per cent of control (PTK6 (human)): 87%
- kinase still bound, per cent of control (CDK13 (human)): 95%
- kinase still bound, per cent of control (EPHA7 (human)): 88%
- kinase still bound, per cent of control (ACVR2A (human)): 83%
- kinase still bound, per cent of control (SNRK (human)): 100%
- kinase still bound, per cent of control (MAP4K2 (human)): 5.8%
- kinase still bound, per cent of control (SIK3 (human)): 93%
- kinase still bound, per cent of control (FYN (human)): 94%
- kinase still bound, per cent of control (SRPK2 (human)): 86%
- kinase still bound, per cent of control (CLK2 (human)): 0.15%
- kinase still bound, per cent of control (YSK4 (human)): 0.05%
- kinase still bound, per cent of control (TEK (human)): 98%
- kinase still bound, per cent of control (TSSK1B (human)): 2.2%
- kinase still bound, per cent of control (AKT1 (human)): 90%
- kinase still bound, per cent of control (DYRK1B (human)): 1.2%
- kinase still bound, per cent of control (MAP2K2 (human)): 4.4%
- kinase still bound, per cent of control (RIOK2 (human)): 37%
- kinase still bound, per cent of control (CSNK1E (human)): 2.6%
